Drawing on BindingDB's records for doi:10.1111/cbdd.12546 (Zhejiang University of Technology, 2015), this text covers IC50 for 18 compounds.

pIC50: −log10 of the molar value.

Glycogen synthase kinase-3 beta, sequence (P49841 whole entry): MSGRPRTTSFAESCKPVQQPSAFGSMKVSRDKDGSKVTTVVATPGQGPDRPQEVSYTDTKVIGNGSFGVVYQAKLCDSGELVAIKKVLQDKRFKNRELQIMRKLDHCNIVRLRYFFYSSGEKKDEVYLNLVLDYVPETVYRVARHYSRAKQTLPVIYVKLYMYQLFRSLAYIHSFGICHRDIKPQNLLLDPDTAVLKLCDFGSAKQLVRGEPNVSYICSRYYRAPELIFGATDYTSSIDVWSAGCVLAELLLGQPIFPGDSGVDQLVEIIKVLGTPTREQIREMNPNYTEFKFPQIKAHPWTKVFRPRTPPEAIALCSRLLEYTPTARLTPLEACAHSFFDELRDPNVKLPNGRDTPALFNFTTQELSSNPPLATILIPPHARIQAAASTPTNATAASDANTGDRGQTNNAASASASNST

The experiment has as its target Glycogen synthase kinase-3 beta (Homo sapiens, UniProt P49841). Nature of the experiment: Kinase Assay.
One may read the pIC50 as the negative decadic logarithm of the IC50, by convention in mol/L. For the compound `Cc1cccc2c(C3=C(c4coc5ncccc45)C(=O)NC3=O)cn(C)c12` [3-(1,7-dimethyl-1H-indol-3-yl)-4-(furo[2,3-b]pyridin-3-yl)-1H-pyrrole-2,5-dione (5c)], the pIC50 is 6.54.
For `O=C1NC(=O)C(c2cn(CCCn3ccnc3)c3ccccc23)=C1c1coc2ncccc12` [3-(1-(3-(1H-Imidazol-1-yl)propyl)-1H-indol-3-yl)-4-(furo[2,3-b]pyridin-3-yl)-1H-pyrrole-2,5-dione (5n)] the value was 6.68; for `O=C1NC(=O)C(c2cn(CCCn3ccnc3)c3ccc(Br)cc23)=C1c1coc2ncccc12` [3-(1-(3-(1H-Imidazol-1-yl)propyl)-5-bromo-1H-indol-3-yl)-4-(furo[2,3-b]pyridin-3-yl)-1H-pyrrole-2,5-dione (5o)], 6.72.
For `O=C1NC(=O)C(c2cn(CCCn3ccnc3)c3ccc(Cl)cc23)=C1c1coc2ncccc12` [3-(1-(3-(1H-Imidazol-1-yl)propyl)-5-chloro-1H-indol-3-yl)-4-(furo[2,3-b]pyridin-3-yl)-1H-pyrrole-2,5-dione (5p)] the value was 6.62.
In the case of `C=CCn1cc(C2=C(c3coc4ncccc34)C(=O)NC2=O)c2ccccc21` [3-(1-Allyl-1H-indol-3-yl)-4-(furo[2,3-b]pyridin-3-yl)-1H-pyrrole-2,5-dione (5k)], the pIC50 is 6.28.
For `CCCCn1cc(C2=C(c3coc4ncccc34)C(=O)NC2=O)c2ccccc21` [3-(1-Butyl-1H-indol-3-yl)-4-(furo[2,3-b]pyridin-3-yl)-1H-pyrrole-2,5-dione (5l)] the value was 6.24.
For `Cn1cc(C2=C(c3coc4ncccc34)C(=O)NC2=O)c2cc(Br)ccc21` [3-(5-Bromo-1-methyl-1H-indol-3-yl)-4-(furo[2,3-b]pyridin-3-yl)-1H-pyrrole-2,5-dione (5h)] the value was 7.15; for `Cn1cc(C2=C(c3coc4ncccc34)C(=O)NC2=O)c2cc(Cl)ccc21` [3-(5-Chloro-1-methyl-1H-indol-3-yl)-4-(furo[2,3-b]pyridin-3-yl)-1H-pyrrole-2,5-dione (5f)], 6.77.
For `Cn1cc(C2=C(c3coc4ncccc34)C(=O)NC2=O)c2cc(F)ccc21` [3-(5-Fluoro-1-methyl-1H-indol-3-yl)-4-(furo[2,3-b]pyridin-3-yl)-1H-pyrrole-2,5-dione (5d)], the pIC50 is 6.41.
The same measure for `Cn1cc(C2=C(c3coc4ncccc34)C(=O)NC2=O)c2ccc(Br)cc21` [3-(6-Bromo-1-methyl-1H-indol-3-yl)-4-(furo[2,3-b]pyridin-3-yl)-1H-pyrrole-2,5-dione (5i)]: 5.71; for `Cn1cc(C2=C(c3coc4ncccc34)C(=O)NC2=O)c2ccc(Cl)cc21` [3-(6-Chloro-1-methyl-1H-indol-3-yl)-4-(furo[2,3-b]pyridin-3-yl)-1H-pyrrole-2,5-dione (5g)]: 5.74.
The same measure for `Cn1cc(C2=C(c3coc4ncccc34)C(=O)NC2=O)c2ccc(F)cc21` [3-(6-Fluoro-1-methyl-1H-indol-3-yl)-4-(furo[2,3-b]pyridin-3-yl)-1H-pyrrole-2,5-dione (5e)]: 6.25; for `O=C1NC(=O)C(c2cn(CCCO)c3ccccc23)=C1c1coc2ncccc12` [3-(Furo[2,3-b]pyridin-3-yl)-4-(1-(3-hydroxypropyl)-1H-indol-3-yl)-1H-pyrrole-2,5-dione (5q)]: 6.51.
With `O=C1NC(=O)C(c2cn(CCCN3CCOCC3)c3ccccc23)=C1c1coc2ncccc12` [3-(Furo[2,3-b]pyridin-3-yl)-4-(1-(3-morpholinopropyl)-1H-indol-3-yl)-1H-pyrrole-2,5-dione (5r)], the pIC50 was 6.16.
For `CC(C)n1cc(C2=C(c3coc4ncccc34)C(=O)NC2=O)c2ccccc21` [3-(Furo[2,3-b]pyridin-3-yl)-4-(1-isopropyl-1H-indol-3-yl)-1H-pyrrole-2,5-dione (5m)] the value was 6.72; for `Cn1cc(C2=C(c3coc4ncccc34)C(=O)NC2=O)c2ccccc21` [3-(Furo[2,3-b]pyridin-3-yl)-4-(1-methyl-1H-indol-3-yl)-1H-pyrrole-2,5-dione (5b)], 6.55.
The same measure for `O=C1NC(=O)C(c2coc3ncccc23)=C1c1c[nH]c2ccccc12` [3-(Furo[2,3-b]pyridin-3-yl)-4-(1H-indol-3-yl)-1H-pyrrole-2,5-dione (5a)]: 5.75; for `COc1ccc2c(c1)c(C1=C(c3coc4ncccc34)C(=O)NC1=O)cn2C` [3-(Furo[2,3-b]pyridin-3-yl)-4-(5-methoxy-1-methyl-1H-indol-3-yl)-1H-pyrrole-2,5-dione (5j)]: 5.88.
